Data reported in paper PMC5993337, “De novo biosynthesis of sterols and fatty acids in the Trypanosoma brucei procyclic form: Carbon source preferences and metabolic flux redistributions” (PLoS Pathogens, 2018).

Molecular target: T1, IVDH (isovaleryl-CoA dehydrogenase), his-tagged recombinant T. brucei IVDH (Trypanosoma brucei, UniProt Q387A0)
T1 construct: gene Tb11.55.0026; lacks N-terminal 13 residues (gene positions 41 to 1234 bp), 6 His codons at 3' end, pET28, E. coli BL21(DE3) with GroEL-ES
T1 sequence (Q387A0 14-411): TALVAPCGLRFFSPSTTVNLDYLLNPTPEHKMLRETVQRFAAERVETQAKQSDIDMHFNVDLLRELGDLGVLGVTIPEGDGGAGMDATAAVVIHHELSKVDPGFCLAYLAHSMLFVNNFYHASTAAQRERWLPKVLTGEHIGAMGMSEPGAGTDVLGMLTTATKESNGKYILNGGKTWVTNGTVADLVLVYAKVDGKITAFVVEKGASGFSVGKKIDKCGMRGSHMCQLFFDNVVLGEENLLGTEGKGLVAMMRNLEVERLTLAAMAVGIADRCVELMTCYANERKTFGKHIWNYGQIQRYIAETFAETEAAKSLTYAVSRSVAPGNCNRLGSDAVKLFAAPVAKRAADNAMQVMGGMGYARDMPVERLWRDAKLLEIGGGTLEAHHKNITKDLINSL
Assay: spectrophotometric dye-reduction assay ([…],6-dichloroindophenol, […] nm)
Format: biochemical
Details: isovaleryl-CoA 52.5 uM, phenazine methosulfate 1.5 mM, FAD 10 uM, 100 mM KPi pH 7.0, 25 °C

Compound: CC(C)CC(=O)SCCNC(=O)CCNC(=O)[C@H](O)C(C)(C)COP(=O)(O)OP(=O)(O)OC[C@H]1O[C@@H](n2cnc3c(N)ncnc32)[C@H](O)[C@@H]1OP(=O)(O)O [isovaleryl-CoA]
- spectrophotometric dye-reduction assay (2,6-dichloroindophenol, 600 nm): specific activity of the his-tagged recombinant T. brucei IVDH purified to homogeneity for its substrate
